Measured values: US20070218456A1, “CELLULAR ASSAYS FOR SIGNALING RECEPTORS” (INVITROGEN CORPORATION, priority 2006, published 2007)
In brackets after ≈: the same amount, converted by molar mass.

Assays:
adenylyl cyclase [1] = assay: FACS forskolin response of T-REx-GPR23-CRE-bla-CHO-K1 pools; type: cell-based, Chinese hamster
From the text: (§1) The transfected and antibiotic selected T-REx™-CRE-bla-CHO-K1 and T-REx™-GPR23-CRE-bla-CHO-K1 clones were sorted for their responsiveness to forskolin. Forskolin activates adenylyl cyclase and results in increased intracellular cAMP concentrations which in turn lead to increased production of beta-lactamase from the CRE response element. Forskolin response of the T-REx™-CRE-bla-CHO-K1 and T-REx™-GPR23-CRE-bla-CHO-K1 pools were determine using FACS. […] In addition, there was an increase in the constitutively active cells in the human GPR23 containing cells as compared to the parental as indicated by the un-stimulated blue levels. The responsive clones were collected at one cell per well in 96 well tissue culture plates then expanded and tested for there responsiveness to LPA.

adenylyl cyclase [2] = assay: FACS forskolin response of T-REx-CRE-bla-CHO-K1 pool; type: cell-based, Chinese hamster; settings: T-REx-CRE-bla-CHO-K1 selected pool
From the text: as §1

[3] = system: T-REx™-GPR23-CRE-bla-CHO-K1 clone H6-E2; assay: T-REx-GPR23-CRE-bla-CHO-K1 clone H6-E2 beta-lactamase reporter assay (induction); type: cell-based, Chinese hamster; settings: Clone H6-E2; 1 μg/ml tetracycline, 16 hrs
Method: Six clones selected for further testing were expanded and retested for their inducible GPR23 specific activity. The clones were plated at 25,000 cells per well in a 96 well black walled clear bottom tissue culture assay plate. The plates were than placed at 37° C. 5% CO2 for 24 hrs to allow the cells to attach to the assay plate. The complete media was then removed from the plate and replaced with assay media (DMEM+0.1% BSA) containing 100 ng/ml pertussis toxin with or without 1 μg/ml tetracycline. The plates were placed at 37° C. 5% CO2 for 16 hrs to allow the induced expression of the GPR23 receptor. The cells were then loaded with LiveBLAzer™-FRET B/G substrate (2 μM) containing solution D for 2 hrs. To determine the optimal cell density for this assay the cells were plated at 2,500, 5,000, 10,000, and 20,000 cells per well in a 384 well black walled clear bottom tissue culture assay plate in complete media (DMEM+10% FBS). The plates were than placed at 37° C. 5% CO2 for 24 hrs to allow the cells to attach to the assay plate. The complete media was then removed from the plate and replaced with assay media (DMEM+0.1% BSA) containing 100 ng/ml pertussis toxin and a four fold dilution series of doxycycline starting at 1 μg/ml. The plates were placed at 37° C./5% CO2 for 16 hrs to allow the induced expression of the GPR23 receptor. The cells were then loaded with LiveBLAzer™-FRET B/G substrate (2 μM) containing solution D for 2 hrs. The cells were plated at 20,000 cells per well in a 384 well black walled clear bottom tissue culture assay plate in complete media (DMEM+10% FBS). The plates were then placed at 37° C. 5% CO2 for 6 hrs to allow the cells to attach to the assay plate. The complete media was then removed from the plate and replaced with assay media (DMEM+0.1% BSA) containing 100 ng/ml pertussis toxin, 0%, 0.25%, 0.5%, or 1.0% DMSO, and a three fold dilution series of doxycycline starting at 1 μg/ml. The plates were placed at 37° C./5% CO2 for 16 hrs to allow the induced expression of the GPR23 receptor. The cells were then loaded with LiveBLAzer™-FRET B/G substrate (2 μM) containing solution D for 2 hrs. The cells were plated at 20,000 cells per well in a 384 well black walled clear bottom tissue culture assay plate in complete media (DMEM+10% FBS). The plates were than placed at 37° C. 5% CO2 for 6 hrs to allow the cells to attach to the assay plate. The complete media was then removed from the plate and replaced with assay media (DMEM+0.1% BSA) containing 100 ng/ml pertussis toxin, 0.5% DMSO, and a three fold dilution series of doxycycline starting at 1 μg/ml. The plates were placed at 37° C. 5% CO2 for 16, 20 or 24 hrs to allow the induced expression of the GPR23 receptor. The cells were then loaded with LiveBLAzer™-FRET B/G substrate (2 μM) containing solution D for 2 hrs. Dose response of T-REx-GPR23-CRE-bla CHO-K1 cells to Doxycycline. T-REx-GPR23-CRE-bla CHO-K1 cells were plated in Growth Media (+) and allowed to attach to the tissue culture plate for 6 hrs. They were then induced for GPR23 expression overnight with doxycycline for 16 hrs in Assay Media. Cells were then loaded with LiveBLAzer™-FRET B/G Substrate (CCF4-AM) for 2 hours. Fluorescence emission values at 460 nm and 530 nm were obtained using a standard florescence plate reader and the Blue/Green Emission Ratios were plotted against the indicated concentrations of doxycycline (FIG. 40).

[4] = system: T-REx™ G2A CRE-bla Freestyle™ 293F cells; settings: selected pool; 24 h tetracycline stimulation
Method: (§2) In order to control the levels of G2A expression, G2A was placed under the control of an inducible promoter using Invitrogen's T-REx™ system. To again assess feasibility, pcDNA 5 G2A/TO was transiently transfected into CRE-bla Freestyle™ and NFAT-bla Freestyle™ cell lines stably expressing the T-REx™ Tet repressor plasmid (pcDNA6/TR; e.g., catalog# V1025-20, Invitrogen, Carlsbad, Calif.). The transfected cells were then treated with 10 ug/mL, 1 ug/mL, or 100 ng/mL tetracycline for 24 h to induce G2A expression. […] Stable pools of cells were created in both the TR CRE-bla and TR NFAT-bla Freestyle™293F backgrounds.
(§3) Stimulation Kinetics—Selected pools of both CRE-bla and NFAT-bla T-REx™ G2A Freestyle™ cells were stimulated with tetracycline for 3, 4, 5, or 24 h and loaded for 2 h with 1 μM LiveBLAzer™-FRET B/G substrate.

[5] = system: T-REx™-G2A-NFAT-bla Freestyle™293F cells; assay: T-REx G2A NFAT-bla Freestyle 293F beta-lactamase reporter assay (inducer dose response)
Method: as §2, §3
To improve the balance between tetracycline-induced signaling and cell death by testing shorter induction times, lower tetracycline concentrations and altered culture conditions were utilized to promote cell health. A 16 h tetracycline stimulation time was attempted on the pools from the first sort. Cells were plated at 10,000 cells/well 24 hours prior to assay in DMEM+10% dFBS and incubated at 37° C./5% CO2 until time of assay. The cells were stimulated for 16 hours (e.g., overnight) with a dilution series of the tetracycline. Following stimulation, the cells were loaded for 2 hours at room temperature in the dark with LiveBLAzer™-FRET B/G loading solution containing 1 μM substrate. This assay was done in Poly-D-Lysine coated plates.
Since G2A has no known agonists, doxycycline and tetracycline were compared as inducers of the assay. An antibiotic selected pool of cells were plated at 10,000 cells/well 24 hours prior to assay in DMEM+10% dFBS and incubated at 37° C./5% CO2 until time of assay. The cells were stimulated with a dilution series of each compound for 16 hours at 37° C./5% CO2 and loaded for 2 hours at room temperature in the dark with LiveBLAzer™-FRET B/G loading solution containing 1 μM substrate.
Cell Density/well—The influence of cell-plating density on assay performance was tested to find the density giving the best response and Z′ while maintaining the expected pharmacology. Cells were plated 24 hours prior to the assay at the densities indicated in FIG. 14 in DMEM+10% dFBS and incubated at 37° C./5% CO2 until the time of assay. The cells were stimulated for 16 hours at 37° C./5% CO2 with a dilution series of the doxycycline. After incubation, the cells were loaded for 2 hours at room temperature in the dark with LiveBLAzer™-FRET B/G loading solution containing 1 μM substrate.
DMSO Tolerance—Tests were performed related to assay performance as a function of DMSO concentration to determine the robustness of the assay to the range of DMSO challenge routinely encountered during high-throughput screening. Dose response curves were performed in the presence of 0%, 0.25%, 0.5%, or 1% DMSO. Cells were plated at 10,000 cells/well 24 hours prior to assay in DMEM+10% dFBS and incubated at 37° C./5% CO2 until time of assay. After incubation, DMSO was added to the wells to final concentrations of 0%, 0.25%, 0.5% and 1% DMSO. The cells were stimulated for 16 hours with a dilution series of the doxycycline. Following stimulation, the cells were loaded for 2 hours at room temperature in the dark with LiveBLAzer™-FRET B/G loading solution containing 1 μM substrate.
The substrate loading times were varied to find the time for an optimal assay performance. Cells were plated at 10,000 cells/well 24 hours prior to assay in DMEM+10% dFBS and incubated at 37° C./5% CO2 until time of assay. After incubation, DMSO was added to the wells to final concentration of 0.5%.

SMILES | increase in the "Blue" gate, stimulated verses un-stimulated (adenylyl cyclase [1]; T-REx-GPR23-CRE-bla-CHO-K1 E1) [%] | increase in the "Blue" gate, stimulated verses un-stimulated (adenylyl cyclase [1]; T-REx-GPR23-CRE-bla-CHO-K1 H6) [%] | increase in the percentage of cells in the "Blue" (responding) gate, stimulated verses un-stimulated (adenylyl cyclase [2]) [%] | inducible response (induced versus uninduced) [3] | cell death [4] | EC50 ([5]; Homo sapiens, FreeStyle 293-F, antibiotic selected pool, 10,000 cells/well, 16 h stimulation, 2 h loading) [µg/mL] | RR (Max) ([5]; antibiotic selected pool, 10,000 cells/well, 16 h stimulation) | cell death ([5]; selected pool, 24 h tetracycline stimulation)
C=C[C@@]1(C)CC(=O)[C@]2(O)[C@@]3(C)[C@@H](O)CCC(C)(C)[C@@H]3[C@H](O)[C@H](OC(C)=O)[C@@]2(C)O1 [Forskolin] | ~20 | ~21.1 | ~10.7 |  |  |  |  | 
CN(C)[C@@H]1C(O)=C(C(N)=O)C(=O)[C@@]2(O)C(O)=C3C(=O)c4c(O)cccc4[C@@](C)(O)[C@H]3C[C@@H]12 [Tetracycline] |  |  |  | about 9.2 fold | substantial cell death | 0.046 (≈ 0.104 µM) | 3.1 | substantial cell death
